In patent publication US20260132123A1, “ABAD INHIBITOR COMPOUNDS” (UNIVERSITY COURT OF THE UNIVERSITY OF ST ANDREWS, priority 2021, published 2026):
pEC50: −log10 of the molar value.

Columns and labels:
17β-HSD10 = biological target: T1, 17β-HSD10 (Homo sapiens, UniProt Q99714); assay: 17β-HSD10 (ABAD) enzyme inhibition assay, NADH oxidation read at 340 nm (primary screen and dose response); assay type: biochemical; details: for pEC50 / Max. Effect (%) / Hill Slope / Max. Fit / Min. Fit: recombinant 17βHSD10 enzyme assay; for Hill Slope / Max. Fit / Min. Fit: curve fit
T1 construct: Histev (histidine tag with TEV site) (N, cleaved yes); made in house; host or cells: E. coli BL21-CodonPlus
T1 sequence (Q99714 1-261): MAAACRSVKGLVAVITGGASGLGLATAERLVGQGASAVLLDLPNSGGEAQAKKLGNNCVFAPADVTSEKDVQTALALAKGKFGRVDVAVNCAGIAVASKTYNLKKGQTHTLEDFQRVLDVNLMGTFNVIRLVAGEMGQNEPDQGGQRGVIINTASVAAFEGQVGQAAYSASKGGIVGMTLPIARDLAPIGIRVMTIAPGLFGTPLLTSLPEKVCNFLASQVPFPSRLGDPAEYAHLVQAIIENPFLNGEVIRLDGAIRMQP
Procedure, shortened: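 Tag-cleaved recombinant human 17β-HSD10 (2.5 nM) preincubated 15 min with compound in Tris pH 7.4, NaCl, DTT, Tween, BSA (catalase in some runs), then 100 μM acetoacetyl-CoA and NADH added. NADH oxidation by A340 fall: 35 min endpoint for screening at 10 μM; continuous 45 min for dose response.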

mtsABAD HEK293 cells [1] = assay: Lactate dehydrogenase (LDH) cytotoxicity assay; assay type: cell-based, human; details: 50 μM compound
Experimental: Cell cytotoxicity was assessed via the measurement of lactate dehydrogenase leakage into the culture medium using a commercially available kit from Pierce (Thermo Scientific cat no. 88953). This was carried out in accordance with the kit guidelines, with the activity of Lactate Dehydrogenase (LDH) being calculated from the change in absorbance at […] as NADH is reduced. HEK293 cells overexpressing mts17β-HSD10 were cultured in phenol-red free media (10% fetal bovine serum (FBS), 1 mM sodium pyruvate, 100 units penicillin, 0.1 mg/mL streptomycin and 2 mM L-glutamine) and seeded at a density of 10,000 cells per well (100 μL, 96 well plates). […] Treated cells were incubated at 37° C. and CO2 (5%) for 24 hours before the LDH assay was performed as per the manufacturer's instructions. Spontaneous control (water) and maximum control (lysis buffer) used in accordance with the kit guide. Absorbance was measured at 490 nm and 680 nm using a SpectraMaxM2e spectrophotometer. The measured LDH activity was used to calculate % cytotoxicity using the following equation: […]

mtsABAD HEK293 cells [2] = assay: Alamar Blue cell viability assay; assay type: cell-based, human; details: 50 μM compound
Experimental: Cell viability was assessed via fluorescence change using the commercially available Alamar Blue from ThermoFisher. HEK293 cells overexpressing mts17β-HSD10 were cultured in phenol-red free media (10% FBS, 1 mM sodium pyruvate, 100 units penicillin, 0.1 mg/mL streptomycin and 2 mM L-glutamine) and seeded at a density of 10,000 cells per well (100 μL, 96 well plates). […] Treated cells were then incubated at 37° C. and CO2 (5%) for 24 hours before the assay was performed as per the manufacturer's instructions. Fluorescence was measured at 530 nm excitation and 590 nm emission using a SpectraMaxM2e spectrophotometer.

Row | Structure (SMILES) | pEC50 (17β-HSD10) | Max. Effect (%) (17β-HSD10) | LDH % Toxicity (50 μM Dose) (mtsABAD HEK293 cells [1]) [%] | Alamar Blue % Viability (50 μM Dose) (mtsABAD HEK293 cells [2]) [%] | Hill Slope (17β-HSD10) | Max. Fit (17β-HSD10) | Min. Fit (17β-HSD10) | 17β-HSD10 / ABAD activity in words (SAR discussion) (17β-HSD10)
1 | CC(=O)N(CC(C)C)c1cccc(N(C)Cc2cnc[nH]2)c1 [ESC1002171, N-[3-[1H-imidazol-5-ylmethyl(methyl)amino]phenyl]-N-isobutyl-acetamide] | < 4.70 | 34 | 5.933 | 86.843 | – | – | – | –
2 | Cc1ccsc1C(=O)N1CCC[C@@H]1c1ccccc1-c1cccnc1 [ESC1002090] | 5.94 | 94 | 5.162 | 102.627 | 1.1 | 97 | 0 | –
3 | CN(Cc1c[nH]cn1)c1cccc(N(CC2CCC2)C(=O)c2ccccc2F)c1 [ESC1002265] | 6.02 | 96 | 4.52 | 80.52 | 1.1 | 99 | 0 | –
4 | CC(C)CN(C(=O)c1cccc2ccccc12)c1cccc(N(C)Cc2cnc[nH]2)c1 [ESC1002172, N-[3-[1H-imidazol-5-ylmethyl(methyl)amino]phenyl]-N-isobutyl-naphthalene-1-carboxamide] | 5.55 | 87 | 5.472 | 85.337 | 1.1 | 96 | 0 | –
5 | Cc1ccsc1C(=O)N1CCC[C@H]1c1ccccc1-c1ccccc1Cl [ESC1002324] | 6.53 | 99 | 5.04 | 85.64 | 1 | 102 | 0 | –
6 | CC(C)CN(C(=O)c1ccccc1F)c1cccc(N(C)Cc2ccccn2)c1 [ESC1002209] | 5.24 | 80 | 5.698 | 80.514 | 0.98 | 104 | 0 | –
7 | Cc1ccsc1C(=O)N1CCC[C@H]1c1ccccc1-c1cccc(Cl)c1 [ESC1002321] | 6.58 | 105 | 5.98 | 84.52 | 0.92 | 102 | 4 | –
8 | CC(C)CN(C(=O)c1ccccc1F)c1cccc(N(C)Cc2cncn2C)c1 [ESC1002199] | < 4.70 | 13 | 5.028 | 89.524 | – | – | – | –
9 | Cc1ccsc1C(=O)N1CCC[C@H]1c1ccccc1-c1cccc(C)c1C [ESC1002339] | 6.28 | 99 | 4.39 | 82.52 | 1.4 | 97 | 7 | –
10 | CC(C)CN(C(=O)c1ccccc1F)c1cccc(N(C)Cc2nccn2C)c1 [ESC1002202] | 5.00 | 57 | 2.542 | 81.531 | 1.3 | 79 | 0 | –
11 | COc1ccc(-c2ccccc2[C@H]2CCCN2C(=O)c2ccc(C)cc2)cn1 (stereo in doubt) [ESC1002120, [2-[2-(6-methoxy-3-pyridyl)phenyl]pyrrolidin-1-yl]-(p-tolyl)methanone] | < 4.70 | 13 | 4.611 | 81.743 | – | – | – | –
12 | CC(C)CN(C(=O)C1CCCCC1)c1cccc(N(C)Cc2cnc[nH]2)c1 [ESC1002166, N-[3-[1H-imidazol-5-ylmethyl(methyl)amino]phenyl]-N-isobutyl-cyclohexanecarboxamide] | 6.02 | 99 | 4.554 | 82.237 | 0.93 | 104 | 0 | less potent
13 | CC(C)CN(C(=O)c1ccccc1F)c1cccc(N(C)Cc2ccc(O)nc2)c1 [ESC1002212] | < 4.70 | 16 | 5.576 | 94.278 | – | – | – | –
14 | CC(C)CN(C(=O)C(C)C)c1cccc(N(C)Cc2cnc[nH]2)c1 [ESC1002165, N-[3-[1H-imidazol-5-ylmethyl(methyl)amino]phenyl]-N-isobutyl-2-methyl-propanamide] | 5.78 | 94 | 4.074 | 88.291 | 1 | 100 | 0 | –
15 | Cc1n[nH]c(Cc2ccccc2)c1-c1ccccc1O [ESC1002170, 2-(5-benzyl-3-methyl-1H-pyrazol-4-yl) phenol] | 6.30 | 99 | 5.192 | 79.141 | 1.1 | 98 | 0 | –
16 | CC(C)CN(C(=O)c1ccccc1F)c1cccc(N(C)Cc2cncs2)c1 [ESC1002208] | < 4.70 | 50 | 20.084 | 65.577 | – | – | – | –
17 | Cc1ccsc1C(=O)N1CCC[C@H]1c1ccccc1-c1ccc(N2CCOCC2)cc1 [ESC1002318] | 5.72 | 91 | 2.55 | 85.76 | 1.1 | 98 | −1 | –
18 | Cc1ccc(-c2ccccc2[C@@H]2CCCN2C(=O)c2sccc2C)cc1 [ESC1002337] | 6.68 | 102 | 4.10 | 85.13 | 1.3 | 99 | −7 | –
